In article PMC5609566, “Elucidation of antimicrobial activity and mechanism of action by N-substituted carbazole derivatives” (Bioorganic & Medicinal Chemistry Letters, 2017):
In brackets after ≈: the same amount, converted by molar mass.

Key:
[1] = biological target: T1, Mammalian Na^+,K^+-ATPase (Sus scrofa, UniProt P05024); test: Colorimetric ATPase assay, pig kidney membranes; assay type: biochemical; settings: pH 7, n = 3; read-out: ATP hydrolysis IC50 Mammalian Na^+,K^+-ATPase
T1 construct: from tissue; host or cells: pig kidney plasma membranes (gift, Aarhus University; prepared per Klodos et al., 2002)
Source text: (§1) To investigate the H^+-ATPase inhibitory effect of the compounds we isolated plasma membranes containing H^+-ATPase from S. cerevisiae and C. albicans cells.[15] Plasma membranes isolated from pig kidney as well as endoplasmic reticulum membranes from rabbit hind leg muscle were used to counter-screen compounds for activity against mammalian Na^+,K^+-ATPase and Ca^2+-ATPase, respectively. Prior to their use, fungal plasma membrane batches were validated by determining the maximum ATP hydrolysis activity, the pH optimum of the ATPase activity, and the sensitivity to inhibition by orthovanadate. ATPase activity was determined by a colorimetric assay that measures the amount of inorganic phosphate liberated over time, as described in Kjellerup et al., 2017.[15] Table 2, Table 3, Table 4 list the IC50 values obtained by measuring the concentration dependence of the ATPase activity for the fifteen carbazole compounds with each of the four membrane preparations.
(§2) Pma1-containing plasma membranes were prepared from S. cerevisiae RS72 yeast cells that had been transformed with the full-length cDNA of the S. cerevisiae plasma membrane H^+-ATPase isoform PMA1 under control of the PMA1 promoter, using the same procedure as described in Kongstad et al., 2014^1. For the preparation of C. albicans membranes, a 100 ml overnight culture grown in YPD (10 g/L yeast extract (BD, Sparks, MD), 20 g/L Bacto peptone (BD), 20 g/L D-(+)-glucose) was transferred to 1 L YPD and grown for a further 7 h at RT with agitation (150 rpm), followed by cell harvesting and subsequent membrane preparation using the same procedure as described in Kongstad et al., 2014^1. […] Rabbit sarcoplasmic reticulum membranes containing Sarco/Endoplasmic Reticulum Ca^2+ ATPase (SERCA) were kindly provided by Dr. Claus E. Olesen and Dr. Jesper V. Møller, Aarhus University and prepared as described in Andersen et al., 1985^2. Pig kidney Na^+,K^+-ATPase was kindly provided by Dr. Natalya Fedosova, Aarhus University and prepared as described in Klodos et al., 2002^3.
(§3) The compound libraries were purchased from Enamine Ltd, Ukraine and Chembridge Corp, USA. ATPase activity was determined by measuring the amount of liberated phosphate from ATP hydrolysis. […] Reactions were initiated by the addition of Na-ATP to a final concentration of 2.5 mM (Pma1 and Na^+,K^+-ATPase) or 5 mM (SERCA), followed by 30 minutes incubation at 30 °C. The amount of liberated phosphate was determined colorimetrically after addition of STOP solution (mixture of L-ascorbic acid, ammonium heptamolybdate tetrahydrate, and HCl to give final concentrations of 65 mM, 2.2 mM, and 189 mM, respectively) with 5 minutes incubation at room temperature (RT) followed by addition of arsenite solution (mixture of NaAsO2, sodium citrate dihydrate, and acetic acid to give final concentrations of 3.1 mM, 28 mM, and 141 mM, respectively). Absorption was measured at 860 nm after an additional 30 minutes incubation at RT.

Candida glabrata Cg003 = test: Fungal growth inhibition MIC (MFC); assay type: cell-based; settings: Nakaseomyces glabratus, Candida glabrata Cg003 (clinical azole-resistant isolate); for MIC: RPMI-1640; for MFC: value in brackets
Source text: (§4) We subsequently assessed the carbazole series for antifungal activity, as described in Kjellerup et al., 2017.[15] Table 2, Table 3, Table 4, Table 5 list the minimum inhibitory concentrations (MIC) and the minimum fungicidal concentrations (MFC) of the fifteen compounds tested against the yeasts Saccharomyces cerevisiae, Candida albicans, C. krusei, and two isolates of C. glabrata (a wild-type strain ATCC 90030 and a clinical azole-resistant isolate Cg003 with increased efflux pump expression[19]), and the molds Aspergillus fumigatus and A. flavus. MIC was defined as the lowest concentration inhibiting visual growth of the microorganism in RPMI-1640 media. […] However, in several cases antifungal activity against molds was minimal, Table 5.
(§5) Compound hits from the library screening were evaluated against baker yeast S. cerevisiae and C. albicans (ATCC 90028). The minimum inhibitory concentration (MIC) was defined as the lowest concentration inhibiting visual growth of the microorganism and this was determined in triplicate. Standard errors were typically less than 5%. MICs for synthesized compounds were determined on the following fungal isolates: Saccharomyces cerevisiae (ATCC 9763), Candida albicans (SC5314), Candida krusei (ATCC 6258), Candida glabrata (ATCC 90030), Aspergillus flavus (ATCC MYA-1005) and Aspergillus fumigatus (ATCC 13073), which were purchased from American Type Culture Collection, and C. glabrata strain Cg003, which was kindly provided by Julius Subik, Comenius University in Bratislava, Slovak Republic. Cg003 is a clinical isolate, characterized to be resistant to fluconazole and itraconazole due to overexpression of the multidrug resistance efflux pumps Cdr1p and Cdr2p^5. The fungal growth assay was performed as described in Kjellerup et al., 2017^6.

Candida albicans SC5314 = test: Fungal growth inhibition MIC (MFC); assay type: cell-based; settings: for MIC: Candida albicans SC5314, RPMI-1640; for MFC: Candida albicans SC5314, value in brackets
Source text: as §4, §5

Candida krusei ATCC 6258 = test: Fungal growth inhibition MIC (MFC); assay type: cell-based; settings: Pichia kudriavzevii, ATCC6258; for MIC: Candida krusei ATCC 6258, RPMI-1640; for MFC: Candida krusei ATCC 6258, value in brackets
Source text: as §4, §5

[2] = system: Candida glabrata ATCC 90030; test: Fungal growth inhibition MIC (MFC); assay type: cell-based; settings: Nakaseomyces glabratus, ATCC90030, Candida glabrata ATCC 90030 (wild-type); for MIC: RPMI-1640; for MFC: value in brackets
Source text: as §4, §5

[3] = system: Saccharomyces cerevisiae ATCC 9763; test: Fungal growth inhibition MIC (MFC); assay type: cell-based; settings: ATCC9763; for MIC: Saccharomyces cerevisiae ATCC 9763, RPMI-1640; for MFC: Saccharomyces cerevisiae ATCC 9763, value in brackets
Source text: as §4, §5

S. cerevisiae H^+-ATPase = biological target: T2, S. cerevisiae H^+-ATPase (Saccharomyces cerevisiae, UniProt P05030); test: Colorimetric ATPase assay (ATP hydrolysis), S. cerevisiae plasma membranes; assay type: biochemical; settings: pH 7, n = 3
T2 construct: transformed with the full-length cDNA of the S. cerevisiae plasma membrane H^+-ATPase isoform PMA1; made in house; host or cells: S. cerevisiae RS72
T2 sequence (P05030 whole entry, canonical isoform): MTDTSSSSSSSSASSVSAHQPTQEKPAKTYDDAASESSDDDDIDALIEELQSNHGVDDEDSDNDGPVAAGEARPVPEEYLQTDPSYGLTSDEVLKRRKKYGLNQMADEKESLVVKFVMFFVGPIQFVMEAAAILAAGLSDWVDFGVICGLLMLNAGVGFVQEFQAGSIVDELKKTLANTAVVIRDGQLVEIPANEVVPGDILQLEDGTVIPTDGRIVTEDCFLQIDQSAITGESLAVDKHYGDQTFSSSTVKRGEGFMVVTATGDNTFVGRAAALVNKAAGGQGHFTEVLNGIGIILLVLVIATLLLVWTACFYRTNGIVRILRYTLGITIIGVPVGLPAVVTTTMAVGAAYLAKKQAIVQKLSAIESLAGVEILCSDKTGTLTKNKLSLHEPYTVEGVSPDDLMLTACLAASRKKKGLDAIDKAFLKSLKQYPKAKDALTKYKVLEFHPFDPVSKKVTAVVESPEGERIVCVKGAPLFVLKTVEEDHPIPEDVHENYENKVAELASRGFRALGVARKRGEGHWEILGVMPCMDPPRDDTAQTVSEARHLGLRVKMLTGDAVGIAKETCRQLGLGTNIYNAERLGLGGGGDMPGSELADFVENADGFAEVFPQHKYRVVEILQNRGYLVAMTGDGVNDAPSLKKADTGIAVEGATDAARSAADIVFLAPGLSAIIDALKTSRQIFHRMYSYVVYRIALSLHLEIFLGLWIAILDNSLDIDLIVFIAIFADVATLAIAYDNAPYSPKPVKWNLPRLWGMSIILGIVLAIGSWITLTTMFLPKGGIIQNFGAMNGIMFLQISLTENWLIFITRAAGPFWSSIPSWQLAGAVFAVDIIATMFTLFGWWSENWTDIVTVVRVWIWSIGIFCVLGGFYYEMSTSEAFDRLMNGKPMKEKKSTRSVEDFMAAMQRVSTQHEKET
Source text: as §1, §2, §3

C. albicans H^+-ATPase = biological target: T3, C. albicans H^+-ATPase (Candida albicans, UniProt P28877); test: Colorimetric ATPase assay (ATP hydrolysis), C. albicans membranes; assay type: biochemical; settings: pH 7, n = 3
T3 construct: endogenous in cells; host or cells: C. albicans culture grown in YPD; microsomal membrane preparation
T3 sequence (P28877 whole entry): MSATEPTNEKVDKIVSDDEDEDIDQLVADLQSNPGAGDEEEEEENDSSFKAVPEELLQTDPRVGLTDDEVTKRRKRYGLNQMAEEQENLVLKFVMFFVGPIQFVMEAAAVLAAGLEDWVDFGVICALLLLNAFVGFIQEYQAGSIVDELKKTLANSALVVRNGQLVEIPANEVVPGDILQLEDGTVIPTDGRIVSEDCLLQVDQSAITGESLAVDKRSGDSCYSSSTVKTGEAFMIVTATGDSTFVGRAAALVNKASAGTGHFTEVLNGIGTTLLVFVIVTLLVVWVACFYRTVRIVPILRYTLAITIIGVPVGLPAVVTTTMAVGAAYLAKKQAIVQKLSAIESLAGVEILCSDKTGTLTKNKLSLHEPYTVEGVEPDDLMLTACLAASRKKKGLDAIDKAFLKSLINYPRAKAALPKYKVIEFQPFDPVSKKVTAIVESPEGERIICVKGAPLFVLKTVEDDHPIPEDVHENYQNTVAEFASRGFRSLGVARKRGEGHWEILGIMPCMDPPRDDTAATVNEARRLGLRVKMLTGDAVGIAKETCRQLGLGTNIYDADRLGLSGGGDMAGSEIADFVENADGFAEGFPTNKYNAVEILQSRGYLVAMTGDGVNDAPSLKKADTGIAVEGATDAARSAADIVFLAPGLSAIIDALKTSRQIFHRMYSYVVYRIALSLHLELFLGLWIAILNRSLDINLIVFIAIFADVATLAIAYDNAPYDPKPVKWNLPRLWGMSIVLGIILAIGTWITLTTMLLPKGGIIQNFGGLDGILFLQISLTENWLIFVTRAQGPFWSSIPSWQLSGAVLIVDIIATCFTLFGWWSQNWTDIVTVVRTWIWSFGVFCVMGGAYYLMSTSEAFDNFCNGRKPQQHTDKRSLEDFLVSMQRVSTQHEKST
Source text: as §1, §2, §3

Mammalian Ca^2+-ATPase = biological target: T4, Mammalian Ca^2+-ATPase (Oryctolagus cuniculus, UniProt P04191); test: Colorimetric ATPase assay, rabbit sarcoplasmic reticulum membranes (SERCA); assay type: biochemical
T4 construct: from tissue; host or cells: rabbit hind leg muscle, sarcoplasmic reticulum membranes (gift, Aarhus University)
T4 sequence (P04191 1-994 isoform P04191-2): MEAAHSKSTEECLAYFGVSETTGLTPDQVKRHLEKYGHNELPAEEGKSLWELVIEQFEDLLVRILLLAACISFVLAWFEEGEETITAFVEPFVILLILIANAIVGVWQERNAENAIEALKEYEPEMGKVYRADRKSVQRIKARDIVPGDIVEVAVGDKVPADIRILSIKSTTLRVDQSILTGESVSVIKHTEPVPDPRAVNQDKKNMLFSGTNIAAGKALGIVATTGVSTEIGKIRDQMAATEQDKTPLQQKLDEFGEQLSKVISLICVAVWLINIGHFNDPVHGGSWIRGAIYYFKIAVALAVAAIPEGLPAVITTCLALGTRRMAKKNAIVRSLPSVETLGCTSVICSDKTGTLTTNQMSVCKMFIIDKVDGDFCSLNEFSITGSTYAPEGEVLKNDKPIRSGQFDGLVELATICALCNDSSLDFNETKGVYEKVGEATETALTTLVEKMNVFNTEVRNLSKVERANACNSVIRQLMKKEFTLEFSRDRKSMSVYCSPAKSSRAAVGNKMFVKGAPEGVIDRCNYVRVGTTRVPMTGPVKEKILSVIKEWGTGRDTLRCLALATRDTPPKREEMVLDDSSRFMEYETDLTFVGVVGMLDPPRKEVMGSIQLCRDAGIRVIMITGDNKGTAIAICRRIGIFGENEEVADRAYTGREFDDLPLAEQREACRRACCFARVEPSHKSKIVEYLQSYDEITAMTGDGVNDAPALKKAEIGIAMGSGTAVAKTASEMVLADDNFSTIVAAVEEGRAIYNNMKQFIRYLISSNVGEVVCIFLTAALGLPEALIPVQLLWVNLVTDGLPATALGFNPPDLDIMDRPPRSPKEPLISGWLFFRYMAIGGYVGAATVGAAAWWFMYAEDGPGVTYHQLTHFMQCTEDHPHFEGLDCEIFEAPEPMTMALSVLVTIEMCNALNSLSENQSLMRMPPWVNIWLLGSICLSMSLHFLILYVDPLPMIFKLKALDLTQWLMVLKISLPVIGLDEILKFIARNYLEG
Source text: as §1, §2, §3

[4] = system: Aspergillus fumigatus ATCC 13073; test: Mold growth inhibition; assay type: cell-based; settings: ATCC13073; Aspergillus fumigatus ATCC 13073, n=3; read-out: Fungal Growth Inhibition MIC
Source text: as §4, §5

Compound | IC50 [1] [µM] | MIC (Candida glabrata Cg003) [µM] | MFC (Candida glabrata Cg003) [µM] | MIC (Candida albicans SC5314) [µM] | MFC (Candida albicans SC5314) [µM] | MIC (Candida krusei ATCC 6258) [µM] | MFC (Candida krusei ATCC 6258) [µM] | MIC [2] [µM] | MFC [2] [µM] | MIC [3] [µM] | MFC [3] [µM] | IC50 (S. cerevisiae H^+-ATPase) [µM] | IC50 (C. albicans H^+-ATPase) [µM] | IC50 (Mammalian Ca^2+-ATPase) [µM] | MIC [4] [µM] | potency on the Ca^2+-ATPase versus the three other pumps (Mammalian Ca^2+-ATPase)
CN(C)CCCn1c2ccc(Cl)cc2c2cc(Cl)ccc21 [Compound 14, 3-(3,6-dichloro-9H-carbazol-9-yl)-N,N-dimethyl-propan-1-amine] | 2.1 ± 0.5 | 24 (≈ 7.71 µg/mL) | 75 (≈ 24.1 µg/mL) | 24 (≈ 7.71 µg/mL) | 75 (≈ 24.1 µg/mL) | 13 (≈ 4.18 µg/mL) | 24 (≈ 7.71 µg/mL) | 24 (≈ 7.71 µg/mL) | 24 (≈ 7.71 µg/mL) | 5.8 (≈ 1.86 µg/mL) | 16 (≈ 5.14 µg/mL) | 36.2 ± 3.1 | 23.3 ± 5.3 | 13 ± 2.1 | > 75 | –
CN(C)CCCCn1c2ccc(Cl)cc2c2cc(Cl)ccc21 [Compound 15] | 5.1 ± 0.8 | 7.5 (≈ 2.51 µg/mL) | 24 (≈ 8.05 µg/mL) | 24 (≈ 8.05 µg/mL) | 24 (≈ 8.05 µg/mL) | 7.5 (≈ 2.51 µg/mL) | 16 (≈ 5.36 µg/mL) | 7.5 (≈ 2.51 µg/mL) | 7.5 (≈ 2.51 µg/mL) | 2.4 (≈ 0.805 µg/mL) | 5 (≈ 1.68 µg/mL) | 51.8 ± 0.5 | 31.1 ± 4.8 | 17.5 ± 11.4 | 24 (≈ 8.05 µg/mL) | –
CN1CCN(CCCn2c3ccc(Cl)cc3c3cc(Cl)ccc32)CC1 [Compound 16, 3,6-dichloro-9-(3-(4-methylpiperazin-1-yl)propyl)-9H-carbazole] | 2.5 ± 0.6 | 7.5 (≈ 2.82 µg/mL) | 7.5 (≈ 2.82 µg/mL) | 24 (≈ 9.03 µg/mL) | 24 (≈ 9.03 µg/mL) | 7.5 (≈ 2.82 µg/mL) | 7.5 (≈ 2.82 µg/mL) | 7.5 (≈ 2.82 µg/mL) | 7.5 (≈ 2.82 µg/mL) | 2.4 (≈ 0.903 µg/mL) | 2.4 (≈ 0.903 µg/mL) | 20 ± 1 | 7.1 ± 0.5 | 23.2 ± 6.4 | 41 (≈ 15.4 µg/mL) | –
Clc1ccc2c(c1)c1cc(Cl)ccc1n2CCCN1CCOCC1 [Compound 18, 4-(3-(3,6-dichloro-9H-carbazol-9-yl)propyl)morpholine] | 7.7 ± 3.1 | > 75 | > 75 | > 75 | > 75 | > 75 | > 75 | > 75 | > 75 | > 75 | > 75 | 11.1 ± 3.8 | 5.9 ± 1.7 | 70.9 ± 8.4 | > 75 | much less potent on the Ca^2+-ATPase than the three other pumps
